Values belong to the molecule of their own block, whether it stands above or below them. Active and inactive are the calls of the source.
Assays:
[1] = target: T1, Sentrin-specific protease 7 (Homo sapiens, UniProt Q9BQF6); format: functional;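 note: Luminescence-based dose-response confirmation of ultra-high-throughput screening hits, measuring inhibition of SENP7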
T1 sequence (Q9BQF6 whole entry): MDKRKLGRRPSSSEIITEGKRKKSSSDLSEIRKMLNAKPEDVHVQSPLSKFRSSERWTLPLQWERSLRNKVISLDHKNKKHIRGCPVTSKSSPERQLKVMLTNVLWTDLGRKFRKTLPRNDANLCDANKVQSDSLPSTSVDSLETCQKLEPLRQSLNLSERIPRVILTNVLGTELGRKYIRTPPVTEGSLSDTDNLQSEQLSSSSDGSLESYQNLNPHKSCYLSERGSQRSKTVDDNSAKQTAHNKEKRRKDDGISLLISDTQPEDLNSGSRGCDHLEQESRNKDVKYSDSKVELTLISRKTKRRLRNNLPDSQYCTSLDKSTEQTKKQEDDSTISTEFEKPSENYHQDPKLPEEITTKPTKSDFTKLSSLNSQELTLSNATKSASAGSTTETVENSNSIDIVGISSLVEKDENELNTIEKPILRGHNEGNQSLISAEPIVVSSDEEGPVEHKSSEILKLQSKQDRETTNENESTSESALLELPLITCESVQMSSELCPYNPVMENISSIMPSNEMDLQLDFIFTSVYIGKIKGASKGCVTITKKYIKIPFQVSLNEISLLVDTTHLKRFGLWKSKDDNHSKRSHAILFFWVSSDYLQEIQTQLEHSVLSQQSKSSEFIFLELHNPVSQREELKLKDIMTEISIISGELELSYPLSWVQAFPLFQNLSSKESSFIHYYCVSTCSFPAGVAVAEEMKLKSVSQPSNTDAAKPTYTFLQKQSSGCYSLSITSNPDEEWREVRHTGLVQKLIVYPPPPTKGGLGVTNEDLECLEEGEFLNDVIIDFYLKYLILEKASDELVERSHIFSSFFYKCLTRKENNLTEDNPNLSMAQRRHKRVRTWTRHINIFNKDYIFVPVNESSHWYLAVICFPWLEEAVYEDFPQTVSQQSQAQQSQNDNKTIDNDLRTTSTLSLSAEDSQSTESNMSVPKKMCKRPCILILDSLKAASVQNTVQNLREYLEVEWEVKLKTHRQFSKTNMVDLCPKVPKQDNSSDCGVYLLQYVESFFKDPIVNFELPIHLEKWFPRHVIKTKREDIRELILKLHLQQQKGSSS

[2] = target: T2, Sentrin-specific protease 6 (Homo sapiens, UniProt Q9GZR1); format: functional;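 note: Luminescence-based dose-response confirmatory assay of SENP6 inhibition, following up an ultra-high-throughput screen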
T2 sequence (Q9GZR1 whole entry): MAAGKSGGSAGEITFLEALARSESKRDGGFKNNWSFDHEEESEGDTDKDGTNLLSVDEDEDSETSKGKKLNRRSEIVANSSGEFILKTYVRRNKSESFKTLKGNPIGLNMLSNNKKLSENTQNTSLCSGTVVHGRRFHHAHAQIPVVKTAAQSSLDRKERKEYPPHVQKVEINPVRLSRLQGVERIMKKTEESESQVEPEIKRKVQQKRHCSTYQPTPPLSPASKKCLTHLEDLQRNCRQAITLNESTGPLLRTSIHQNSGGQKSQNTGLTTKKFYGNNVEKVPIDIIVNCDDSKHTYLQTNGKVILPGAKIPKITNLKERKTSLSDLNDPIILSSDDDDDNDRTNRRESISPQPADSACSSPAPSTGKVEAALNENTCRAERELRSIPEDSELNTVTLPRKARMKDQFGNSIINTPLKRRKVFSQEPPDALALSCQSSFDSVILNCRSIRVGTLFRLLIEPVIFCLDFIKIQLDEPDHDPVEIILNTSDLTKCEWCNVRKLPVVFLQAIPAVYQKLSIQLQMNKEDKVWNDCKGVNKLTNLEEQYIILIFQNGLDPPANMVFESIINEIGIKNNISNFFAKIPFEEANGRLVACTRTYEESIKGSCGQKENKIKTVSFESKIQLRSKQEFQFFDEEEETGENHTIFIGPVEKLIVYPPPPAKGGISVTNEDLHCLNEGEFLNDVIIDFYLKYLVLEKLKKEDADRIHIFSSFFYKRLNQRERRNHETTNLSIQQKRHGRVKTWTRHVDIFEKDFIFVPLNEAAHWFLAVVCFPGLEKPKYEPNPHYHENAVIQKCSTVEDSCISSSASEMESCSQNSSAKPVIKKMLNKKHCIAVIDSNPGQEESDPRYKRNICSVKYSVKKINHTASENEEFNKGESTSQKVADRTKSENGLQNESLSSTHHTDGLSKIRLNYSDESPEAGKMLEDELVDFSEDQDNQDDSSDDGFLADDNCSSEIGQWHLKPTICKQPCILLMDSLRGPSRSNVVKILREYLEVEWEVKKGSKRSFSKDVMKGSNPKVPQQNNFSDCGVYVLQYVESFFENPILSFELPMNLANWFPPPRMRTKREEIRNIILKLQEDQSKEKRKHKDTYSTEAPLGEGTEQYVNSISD

[3] = target: T3, Caspase-3 (Homo sapiens, UniProt P42574); format: functional;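 note: Dose-response selectivity test against caspase-3 for candidate inhibitors of sentrin-specific proteases (SENPs)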
T3 sequence (P42574 whole entry): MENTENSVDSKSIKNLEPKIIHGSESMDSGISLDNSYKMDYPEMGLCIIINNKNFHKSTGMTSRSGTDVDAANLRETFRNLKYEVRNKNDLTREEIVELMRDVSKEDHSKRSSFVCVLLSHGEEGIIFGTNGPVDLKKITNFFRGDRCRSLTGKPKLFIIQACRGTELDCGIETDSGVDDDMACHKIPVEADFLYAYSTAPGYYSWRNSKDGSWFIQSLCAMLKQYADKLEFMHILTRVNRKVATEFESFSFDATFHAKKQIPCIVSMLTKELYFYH

[4] = target: T4, Sentrin-specific protease 8 (Homo sapiens, UniProt Q96LD8); format: functional;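 note: luminescence read-out of SENP8 inhibition, dose-response confirmation following an ultra-high-throughput screen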
T4 sequence (Q96LD8 whole entry): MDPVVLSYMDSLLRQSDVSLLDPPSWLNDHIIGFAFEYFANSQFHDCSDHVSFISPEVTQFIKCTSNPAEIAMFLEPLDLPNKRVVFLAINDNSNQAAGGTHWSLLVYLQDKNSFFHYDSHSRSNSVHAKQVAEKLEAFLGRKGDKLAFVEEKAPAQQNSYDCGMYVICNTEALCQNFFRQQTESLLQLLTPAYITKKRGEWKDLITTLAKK

[5] = target: Fatty acid synthase (Homo sapiens, UniProt P49327); assay: FAS thioesterase domain inhibitors, dose response, biochemical, kinetic fluorescence intensity (AID 624326); format: functional;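 note: rate of fluorescence rise from hydrolysis of a fluorogenic O-methyl fluorescein ester substrate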
Sequence of Fatty acid synthase (P49327 whole entry, the tested form may be a part): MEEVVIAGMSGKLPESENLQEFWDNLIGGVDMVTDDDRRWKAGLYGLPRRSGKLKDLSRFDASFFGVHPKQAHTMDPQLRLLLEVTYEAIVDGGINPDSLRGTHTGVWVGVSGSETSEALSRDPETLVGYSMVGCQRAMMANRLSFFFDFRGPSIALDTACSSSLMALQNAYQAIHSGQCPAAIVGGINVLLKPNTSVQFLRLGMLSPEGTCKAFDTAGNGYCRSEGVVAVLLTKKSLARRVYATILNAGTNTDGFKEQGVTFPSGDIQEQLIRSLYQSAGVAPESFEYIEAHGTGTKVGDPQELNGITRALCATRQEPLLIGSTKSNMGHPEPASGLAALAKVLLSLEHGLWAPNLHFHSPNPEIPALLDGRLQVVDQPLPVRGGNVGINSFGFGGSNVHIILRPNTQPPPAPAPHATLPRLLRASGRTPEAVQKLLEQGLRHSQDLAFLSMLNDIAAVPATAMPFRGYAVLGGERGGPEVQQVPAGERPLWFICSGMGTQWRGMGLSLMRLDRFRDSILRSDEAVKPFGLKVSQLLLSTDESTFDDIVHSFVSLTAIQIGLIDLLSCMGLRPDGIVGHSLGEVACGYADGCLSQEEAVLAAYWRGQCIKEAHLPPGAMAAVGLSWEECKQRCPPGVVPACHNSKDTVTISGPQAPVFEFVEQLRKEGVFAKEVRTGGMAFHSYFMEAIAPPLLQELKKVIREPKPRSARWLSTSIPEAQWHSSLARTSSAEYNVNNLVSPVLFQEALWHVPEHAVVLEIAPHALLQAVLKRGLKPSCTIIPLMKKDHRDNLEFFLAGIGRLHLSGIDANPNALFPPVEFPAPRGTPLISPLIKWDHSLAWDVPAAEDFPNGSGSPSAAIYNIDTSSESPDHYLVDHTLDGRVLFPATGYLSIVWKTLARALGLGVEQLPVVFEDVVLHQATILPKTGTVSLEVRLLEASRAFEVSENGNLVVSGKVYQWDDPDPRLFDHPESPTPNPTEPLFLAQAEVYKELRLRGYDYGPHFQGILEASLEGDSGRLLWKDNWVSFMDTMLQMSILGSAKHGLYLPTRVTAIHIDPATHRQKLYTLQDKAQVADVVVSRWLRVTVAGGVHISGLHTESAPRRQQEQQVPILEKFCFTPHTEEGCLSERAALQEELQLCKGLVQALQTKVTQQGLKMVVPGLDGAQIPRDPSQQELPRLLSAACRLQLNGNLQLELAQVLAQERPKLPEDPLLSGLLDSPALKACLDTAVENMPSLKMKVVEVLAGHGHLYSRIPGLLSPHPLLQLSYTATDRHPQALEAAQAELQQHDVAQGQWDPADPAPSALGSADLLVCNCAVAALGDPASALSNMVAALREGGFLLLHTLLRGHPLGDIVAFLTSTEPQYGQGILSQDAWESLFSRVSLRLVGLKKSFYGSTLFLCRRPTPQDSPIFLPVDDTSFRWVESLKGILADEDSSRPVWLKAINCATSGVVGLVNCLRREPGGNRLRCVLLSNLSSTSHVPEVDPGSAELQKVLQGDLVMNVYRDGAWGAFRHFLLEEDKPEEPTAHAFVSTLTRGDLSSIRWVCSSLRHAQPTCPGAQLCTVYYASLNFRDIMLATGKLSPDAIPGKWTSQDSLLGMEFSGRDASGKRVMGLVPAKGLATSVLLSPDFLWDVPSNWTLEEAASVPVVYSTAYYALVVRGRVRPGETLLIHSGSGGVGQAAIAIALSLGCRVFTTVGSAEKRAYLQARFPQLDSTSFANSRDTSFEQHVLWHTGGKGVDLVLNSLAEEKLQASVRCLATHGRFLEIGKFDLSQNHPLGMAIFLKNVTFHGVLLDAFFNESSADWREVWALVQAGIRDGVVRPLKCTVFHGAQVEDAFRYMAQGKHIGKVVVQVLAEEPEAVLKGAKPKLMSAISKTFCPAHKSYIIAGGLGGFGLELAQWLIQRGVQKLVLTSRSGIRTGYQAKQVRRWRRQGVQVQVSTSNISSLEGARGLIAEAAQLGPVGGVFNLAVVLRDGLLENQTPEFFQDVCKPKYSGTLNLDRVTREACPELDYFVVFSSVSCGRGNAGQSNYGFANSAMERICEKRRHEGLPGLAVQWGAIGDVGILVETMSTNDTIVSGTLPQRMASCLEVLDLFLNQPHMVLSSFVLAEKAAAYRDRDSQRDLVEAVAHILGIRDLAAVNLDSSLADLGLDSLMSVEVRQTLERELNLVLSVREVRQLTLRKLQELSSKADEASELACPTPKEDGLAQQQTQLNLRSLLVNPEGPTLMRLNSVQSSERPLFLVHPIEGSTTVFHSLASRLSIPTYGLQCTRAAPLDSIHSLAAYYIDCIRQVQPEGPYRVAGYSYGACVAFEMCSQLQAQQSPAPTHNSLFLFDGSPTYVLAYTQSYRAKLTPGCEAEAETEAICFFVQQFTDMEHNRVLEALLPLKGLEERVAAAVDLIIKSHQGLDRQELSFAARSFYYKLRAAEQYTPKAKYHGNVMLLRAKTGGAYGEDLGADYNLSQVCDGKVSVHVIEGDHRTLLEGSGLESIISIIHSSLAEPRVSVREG

[6] = HEp-2 cell cytotoxicity, dose response, cytotoxicity control for RSV inhibitor project, HTS (AID 2410); format: functional; conditions: human respiratory syncytial virus
[7] = target: Induced myeloid leukemia cell differentiation protein Mcl-1 (Homo sapiens, UniProt Q07820); format: functional
Sequence of Induced myeloid leukemia cell differentiation protein Mcl-1 (Q07820 whole entry): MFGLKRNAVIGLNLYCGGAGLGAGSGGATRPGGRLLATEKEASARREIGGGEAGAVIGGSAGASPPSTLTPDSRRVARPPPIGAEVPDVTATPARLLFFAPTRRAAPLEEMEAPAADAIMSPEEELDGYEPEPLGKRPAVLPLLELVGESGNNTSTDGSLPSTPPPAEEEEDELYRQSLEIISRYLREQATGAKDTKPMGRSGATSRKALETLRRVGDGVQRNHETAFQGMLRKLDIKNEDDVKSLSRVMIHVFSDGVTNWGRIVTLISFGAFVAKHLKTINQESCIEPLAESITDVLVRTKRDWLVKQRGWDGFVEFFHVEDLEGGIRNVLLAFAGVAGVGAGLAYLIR

[8] = target: T5, Polyadenylate-binding protein 1 (Homo sapiens, UniProt P11940); assay: PABP1 MLLE–PAM2 binding inhibitor potency, dose response, biochemical, fluorescence polarization, FITC-PAM2 peptide (AID 602259); format: functional; conditions: read-out: IC50_Mean
T5 sequence (P11940 whole entry): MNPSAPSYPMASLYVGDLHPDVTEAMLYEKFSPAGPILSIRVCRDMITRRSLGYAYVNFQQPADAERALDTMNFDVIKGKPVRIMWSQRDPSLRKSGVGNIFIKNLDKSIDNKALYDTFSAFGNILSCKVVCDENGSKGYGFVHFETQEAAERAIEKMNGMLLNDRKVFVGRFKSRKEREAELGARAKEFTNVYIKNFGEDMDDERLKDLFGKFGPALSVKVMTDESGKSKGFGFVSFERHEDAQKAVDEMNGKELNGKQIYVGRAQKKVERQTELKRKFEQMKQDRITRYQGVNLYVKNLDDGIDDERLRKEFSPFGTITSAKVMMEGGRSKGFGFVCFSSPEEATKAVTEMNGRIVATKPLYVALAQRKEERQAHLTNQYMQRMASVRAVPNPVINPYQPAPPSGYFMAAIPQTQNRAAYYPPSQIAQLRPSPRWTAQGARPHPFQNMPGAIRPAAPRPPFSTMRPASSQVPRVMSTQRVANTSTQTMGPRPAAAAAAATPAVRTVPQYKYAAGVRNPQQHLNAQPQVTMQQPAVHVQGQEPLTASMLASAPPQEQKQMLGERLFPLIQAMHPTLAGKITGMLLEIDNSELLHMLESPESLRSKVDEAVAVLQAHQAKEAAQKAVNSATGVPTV

[9] = cytotoxicity toward NIH3T3 fibroblasts, dose response, counter-screen, cell-based, ATP luminescence, mouse fibroblasts (AID 2010); format: functional;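 note: cells exposed to compound for about 90 hours before reading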
[10] = target: T5, Polyadenylate-binding protein 1; assay: PABP1 MLLE–PAM2 interaction inhibitors, dose response, miRNA deadenylation inhibitor project, biochemical, fluorescence polarization, Cy5-PAM2 peptide, secondary (AID 602260); format: functional; conditions: read-out: IC50_Mean
[11] = inhibitors of intracellular T. cruzi replication, confirmation, NIH3T3 host cells, beta-gal luminescence (AID 2044); format: functional, cell-based;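 note: intracellular parasites grown in NIH/3T3 mouse fibroblasts as host cells; luminescent beta-galactosidase reporter signal from transgenic T. cruzi replicating inside host cells; inhibitors lower the luminescence signal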
[12] = LGR2 antagonists, dose response, cell-based, HEK293, CRE-luciferase reporter, cherry pick, set 2 (AID 743343); format: functional;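 note: transfected cells were stimulated with diluted bursicon conditioned medium after compound addition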
[13] = MC4R antagonists, dose response, counter-screen for LGR2 antagonist project, cell-based, plate reader, cherry pick (AID 743444); format: functional;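 note: transfected HEK 293 cells stimulated with alpha-MSH peptide; potency of inhibitors of the alpha-MSH evoked signal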
[14] = Luminescence Cell-Based Dose Retest to Confirm Inhibitors of Cancer Stem Cells. [Related pubchem assays (depositor defined):AID2717, AID2721]; format: functional; conditions: Homo sapiens
[15] = target: T6, Cytochrome P450 1A2 (Homo sapiens, UniProt P05177);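 note: PubChem cytochrome P450 panel assay, CYP1A2 panel member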
T6 sequence (P05177 whole entry): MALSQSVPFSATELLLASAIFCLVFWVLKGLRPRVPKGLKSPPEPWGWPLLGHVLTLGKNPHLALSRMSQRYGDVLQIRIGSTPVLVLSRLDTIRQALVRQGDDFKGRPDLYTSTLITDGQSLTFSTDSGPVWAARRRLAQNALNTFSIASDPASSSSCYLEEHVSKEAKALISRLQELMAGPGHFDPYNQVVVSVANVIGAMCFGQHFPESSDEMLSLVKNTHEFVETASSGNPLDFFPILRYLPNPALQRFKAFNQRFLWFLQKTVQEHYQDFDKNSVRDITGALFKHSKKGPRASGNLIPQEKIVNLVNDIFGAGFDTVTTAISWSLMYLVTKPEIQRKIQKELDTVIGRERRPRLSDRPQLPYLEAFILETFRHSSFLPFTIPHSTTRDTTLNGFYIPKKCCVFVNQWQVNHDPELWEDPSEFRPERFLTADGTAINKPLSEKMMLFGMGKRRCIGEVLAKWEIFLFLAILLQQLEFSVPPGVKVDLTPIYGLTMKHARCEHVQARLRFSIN

[16] = cytotoxicity in HPDE-C7 cells, cell-based, fluorescence, HTS (AID 430); format: functional; conditions: Homo sapiens
[17] = cytotoxicity in KRAS-transformed pancreatic duct cells, primary screen, cell-based, fluorescence, HTS (AID 431); format: functional; conditions: Homo sapiens;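 note: cell line used: HPDE-C7K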

IC50 [1]: 11.4 µM (active)
IC50 [2]: 15.6 µM (active)
IC50 [3]: 13.6 µM (active)
Structure (SMILES): N=c1oc2ccccc2cc1C(=O)Nc1ccccc1
IC50 [4]: > 100 µM (inactive)

IC50 [5]: 1.6 µM (active)
Structure (SMILES): CC(C)(C)OC(=O)NCCCC[C@H](NC(=O)c1[nH]cnc1C(=O)NC1CCN(C(=O)OC(C)(C)C)CC1)C(=O)OC(C)(C)C

IC50 [1]: 7.15 µM (active)
IC50 [2]: 10.6 µM (active)
IC50 [3]: 17.4 µM (active)
Structure (SMILES): O=C(Oc1ccc2ccccc2c1Cl)N1CCCCCC1
CC50 [6]: 27.6 µM (active)
IC50 [4]: 15.4 µM (active)

IC50 [1]: 9.25 µM (active)
IC50 [2]: 35.7 µM (active)
IC50 [3]: 23.5 µM (active)
Structure (SMILES): Cc1ccc(Oc2cc(-n3nc(C)cc3C)ncn2)cc1
IC50 [4]: 54.7 µM (active)

IC50 [7]: 3.5 µM (active)
Structure (SMILES): CC1CCCCC12NC(=O)N(CC(=O)Nc1sc3c(c1C(N)=O)CCC3)C2=O (stereo not drawn)

Structure (SMILES): Sc1nnc2c3ccccc3n(CCc3ccccc3)c2n1
IC50 [8]: > 66 µM (inactive)
EC50 [9]: > 60 µM (not active)
CC50 [6]: 23.8 µM (active)
IC50 [10]: > 66 µM (inactive)
EC50 [11]: 2.69 µM (active)

Structure (SMILES): CC(C)Oc1ccc(CNC(=O)CC(c2ccccc2)c2cc(Cl)ccc2O)cc1 (stereo not drawn)
AC50 [12]: 28 µM (active)
EC50 [9]: > 30 µM (not active)
AC50 [13]: 26.7 µM (active)
AC50 [14]: 5.73 µM (active)
AC50 [15]: 28.2 µM (inconclusive)
EC50 [11]: 2.17 µM (active)

Structure (SMILES): CCCC1(CCC)C(=O)N=C(NCc2ccccc2)NC1=O
EC50 [16]: 14.4 µM (active)
EC50 [17]: 13.4 µM (active)

— ChEMBL document CHEMBL1201862, “PubChem BioAssay data set” (2004)
